The term Ki denotes the equilibrium dissociation constant of an inhibitor or competing ligand from its target. Lower therefore signals a stronger hold on the target.

Drawing on patent US6900202B2, “Di-substituted imineheterocyclic compounds” (priority 2000, dated 2005), this text covers Ki for three compounds.

Molecules are shown by their SMILES.

T1 sequence (P25108 21-457): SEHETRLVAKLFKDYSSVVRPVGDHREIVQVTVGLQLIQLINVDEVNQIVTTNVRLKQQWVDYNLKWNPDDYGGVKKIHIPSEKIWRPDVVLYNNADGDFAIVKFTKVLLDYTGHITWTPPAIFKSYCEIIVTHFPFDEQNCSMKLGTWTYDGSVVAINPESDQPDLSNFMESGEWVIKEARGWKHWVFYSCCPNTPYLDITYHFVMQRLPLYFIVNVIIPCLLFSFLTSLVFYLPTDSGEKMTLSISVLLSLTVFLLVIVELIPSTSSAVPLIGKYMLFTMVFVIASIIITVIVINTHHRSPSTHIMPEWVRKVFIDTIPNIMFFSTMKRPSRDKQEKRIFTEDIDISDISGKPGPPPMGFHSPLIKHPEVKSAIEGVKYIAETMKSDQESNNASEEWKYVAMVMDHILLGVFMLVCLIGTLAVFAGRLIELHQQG
T1 sequence (P25109 24-501): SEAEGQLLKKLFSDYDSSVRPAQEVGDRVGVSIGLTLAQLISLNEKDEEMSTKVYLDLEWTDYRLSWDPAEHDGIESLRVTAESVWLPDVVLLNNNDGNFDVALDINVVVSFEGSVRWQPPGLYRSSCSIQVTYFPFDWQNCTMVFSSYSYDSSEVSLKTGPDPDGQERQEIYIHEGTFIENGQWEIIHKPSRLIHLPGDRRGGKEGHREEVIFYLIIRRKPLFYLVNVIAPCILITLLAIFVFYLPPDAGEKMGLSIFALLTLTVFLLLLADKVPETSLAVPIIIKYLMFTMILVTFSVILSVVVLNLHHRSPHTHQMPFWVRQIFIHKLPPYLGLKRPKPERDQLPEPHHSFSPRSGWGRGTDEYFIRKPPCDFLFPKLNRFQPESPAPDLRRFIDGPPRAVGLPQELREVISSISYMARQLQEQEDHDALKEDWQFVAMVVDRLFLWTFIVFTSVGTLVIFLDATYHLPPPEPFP
T1 sequence (P25110 22-517): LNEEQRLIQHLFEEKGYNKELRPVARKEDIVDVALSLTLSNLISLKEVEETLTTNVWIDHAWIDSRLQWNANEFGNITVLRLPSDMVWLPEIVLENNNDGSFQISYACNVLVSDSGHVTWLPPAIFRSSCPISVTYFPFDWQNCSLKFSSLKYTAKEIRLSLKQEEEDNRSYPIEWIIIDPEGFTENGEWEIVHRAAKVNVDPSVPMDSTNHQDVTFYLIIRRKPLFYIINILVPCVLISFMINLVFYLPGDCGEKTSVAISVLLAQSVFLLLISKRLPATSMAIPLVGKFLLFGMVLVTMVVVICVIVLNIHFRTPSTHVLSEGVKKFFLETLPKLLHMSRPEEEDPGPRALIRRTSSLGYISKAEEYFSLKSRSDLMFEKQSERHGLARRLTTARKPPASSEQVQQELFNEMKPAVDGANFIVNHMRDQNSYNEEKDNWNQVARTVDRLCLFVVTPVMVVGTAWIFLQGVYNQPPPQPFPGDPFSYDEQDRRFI

This assay has as its target T1, α1β1γδ subtype of nicotinic acetylcholine receptors (Rattus norvegicus, UniProt P18916+P25108+P25109+P25110).
T1 construct: The centrifugation at 100,000×G for 60 minutes at 4° C. yielded the rat muscle extract as supernatant
In words: biochemical. The assay is classed as binding. The text has this:
The methods for evaluating the binding capabilities of the compounds against nicotinic acetylcholine receptors are different by subtypes of receptors. The binding capabilities of the compounds at α4β2 nicotinic acetylcholine receptors are examined using rat brain membrane obtained from whole homogenized brain, and determining the inhibiting rate of the compounds against [^3H]-cytisine binding to said brain membrane. Furthermore, the binding capabilities of the compounds at α1β1γδ nicotinic acetylcholine receptors are examined using homogenized rat muscle, and determining the inhibiting rate of the compounds against [^3H]-α-bungarotoxin binding to said muscle membrane.
Binding Assays at α1β1γδ Subtype of Nicotinic Acetylcholine Receptors
The affinity of the compounds of the present invention to α1β1γδ subtype of nicotinic acetylcholine receptors was measured by the following method, which was modified method described by Garcha H. S., Thomas P., Spivak C.
(1) Preparation of Rat Skeletal Muscles Containing α1β1γδ Subtype of Nicotinic Acetylcholine Receptors
The substantially same animals described in the Biological Experiment 1 were used.
The isolation of α1β1γδ subtype of nicotinic acetylcholine receptors was performed as follow. That is, rat posterior skeletal muscles were isolated just after sacrificed by decapitation, washed with ice-cooled saline solution and then frozen at −80° C. with liquid nitrogen and stored till using. After thawing the frozen muscles, tissue was homogenized (40% w/v) with buffer solution [2.5 mM of sodium phosphate buffer (pH:7.2), 90 mM of NaCl, 2 mM of KCl, 1 mM of EDTA, 2 mM of benzamidine, 0.1 mM of benzethonium chloride, 0.1 mM of PMSF, 0.01% of sodium azide] in Waring blender [Waring blender 34BL97; WARING PRODUCTS DIVISION DYNAMICS CORPORATION OF AMERICA) for 60 seconds. The homogenate were centrifuged under 20,000×G for 60 minutes at 4° C. The supernatant was separated and the resulting pellet was added to the same buffer (1.5 ml/g wet weight), and homogenized under the same conditions. Triton X100 (2% w/v) was added and the mixture was stirred for 3 hours at 4° C. The centrifugation at 100,000×G for 60 minutes at 4° C. yielded the rat muscle extract as supernatant. This was stored at 4° C. for up to 4 weeks, and used for binding assays at receptors.
(2) Experiments of α1β1γδ Subtype of Nicotinic Acetylcholine Receptors Binding
Receptors binding experiments were performed as follow. That is, the extract of rat muscle containing 600-900 μg of protein was added to test tubes containing test compounds and incubated for 15 minutes at 37° C. Then, to this mixture was added 1 nM of [^3H]-α-bungarotoxin (α-Bgt) and further incubated for 2 hours. The samples were isolated by vacuum filtration onto Whatman GF/B filters, which were prerinsed with 0.5% polyethylenimine just prior to sample filtration, using Brandel multi manifold cell harvester. The filters were rapidly rinsed with washing solution (10 mM of KH2PO4, 150 mM of NaCl, pH 7.2, room temperature) (5×1 ml). The filters were counted in 3 ml of clearsol I (Nacalai Tesque Inc.). The determination of nonspecific binding was incubated in the presence of 1 μM α-Bgt. […] In the receptor binding experiments, said buffer solution was added for adjusting the final concentration of BSA to be 0.05%.
The analyses of the experimental results were conducted by as described in the Biological Experiment 1.
The compound `Clc1ccc(C/N=C2\SCCN2Cc2ccc(Cl)nc2)cn1` [Compound 1, 3-(6-chloro-3-pyridyl)methyl-2-[(6-chloro-3-pyridyl)methyl]iminothiazolidine] displayed a Ki of 420 µM.
The result for `Clc1ccc(C/N=c2\sccn2Cc2ccc(Cl)nc2)cn1` [Compound 8, 3-(6-chloro-3-pyridyl)methyl-2-[(6-chloro-3-pyridyl)methyl]imino-2,3-dihydrothiazole] reads 840 µM; that for `Cn1ccn(Cc2ccc(Cl)nc2)c1=N` [Compound 13, 1-(6-chloro-3-pyridyl)methyl-2-imino-3-methyl-2,3-dihydroimidazole], 320 µM.
